How the values were obtained:
Assay type in all cases: binding, human
HaCat cell extract preys = test: PBM-AP-MS, PBM peptide baits
Description: (§1) HEK293T and HeLa cells were authenticated and found 100% identity to ATCC cat. CRL-3216 and ATCC cat. CCL-2, respectively. Jurkat and HaCat cell lines were not authenticated (original source: ECACC and Deutsches Krebsforschungszentrum DKFZ, respectively). HeLa cells were grown in DMEM (1 g/L glucose, Gibco) medium completed with 5% FCS and 40 μg/mL gentamicin, diluted every 3rd/4th day 1/10. HaCat cells were grown in DMEM (1 g/L glucose, Gibco) medium completed with 10% FCS and 40 μg/mL gentamicin, diluted every 3rd/4th day 1/4. Jurkat cells were grown in RPMI (Gibco) medium completed with 10% FCS and 40 μg/mL gentamicin, diluted every 3rd/4th day 1/12. All cells were kept at 37 °C and 5% CO2. For proteomics analyses cells were seeded on T-175 flasks. After they reached confluency, adherent cells were washed with PBS once and collected by scraping with ice-cold lysis buffer (Hepes-KOH pH 7.5 50 mM, NaCl 150 mM, Triton X-100 1%, complete EDTA-free protease inhibitor cocktail 1×, EDTA 2 mM, TCEP 5 mM, glycerol 10%). Jurkat cells were collected by 1000 g × centrifugation, washed once with PBS, then collected by 1000 g × 5 min centrifugation again and lysed in ice-cold lysis buffer. Lysates were sonicated 4 × 20 s with 1 s long pulses on ice, then incubated rotating at 4 °C for 30 min. Lysates were centrifuged at 12,000 rpm 4 °C for 20 min and supernatant was kept for further analysis. Concentration determination was carried out by standard Bradford method (Bio-Rad Protein Assay Dye Reagent #5000006) using BSA (MP BIomedicals #160069) as control on a Bio-Rad SmartSpec 3000 spectrophotometer instrument.
(§2) For PBM-AP-MS experiments, 30 μl streptavidin resin was mixed with biotin or peptide at 50–60 μM concentration in 6–6.5 resin volume for 60 min to achieve resin saturation. For PDZ-AP-MS experiments, 30 μl streptavidin resin was mixed with biotinylated MBP or MBP-PDZ at 40-50 μM concentration in >1000× resin volume for 60 min to achieve resin saturation. After saturation, resins were washed a single time (ten resin volume, holdup buffer), and were depleted with biotin (1 mM biotin, 5–10 resin volume, 10 min). Finally, resins were washed two times. 0.5 ml 2 mg/ml cell lysate was added to the dry resin (1 mg total input) and were incubated at 4 °C for 2 h. Then, the beads were washed three times with 10 resin volume buffer containing: 50 mM TRIS pH 8.5, 150 mM NaCl, 1% TritonX-100, 10× complete EDTA-free protease inhibitor cocktail, 2 mM EDTA, 1 mM TCEP. Then, the beads were washed two times with ten resin volume buffer containing: 50 mM TRIS pH 8.5, 150 mM NaCl, 1 mM TCEP. Finally, captured protein was eluted from the resin in two steps and the eluted fractions were pooled. For each elution the beads were incubated for 30 min with three resin volume buffer containing: 20 mM TRIS pH8.5, 100 mM NaCl, 500 μM TCEP, 8 M Urea. Between each step, the beads were separated by mild centrifugation and the supernatant was removed by gentle pipetting.
(§3) The samples were precipitated with TCA 20% overnight at 4 °C and centrifuged at 14,000 rpm for 10 min at 4 °C. The protein pellets were washed twice with 1 mL cold acetone and air dried. The protein extracts were solubilized in urea 8 M, reduced with 5 mM TCEP for 30 min, and alkylated with 10 mM iodoacetamide for 30 min in the dark. Double digestion was performed at 37 °C with 500 ng endoproteinase Lys-C for 4 h, followed by fourfold dilution and an overnight digestion with 500 ng trypsin. Peptide mixtures were then desalted on C18 spin-column and dried on Speed-Vacuum.
(§4) Samples were analyzed using an Ultimate 3000 nano-RSLC (Thermo Scientific, San Jose California) coupled in line with a LTQ-Orbitrap ELITE mass spectrometer via a nano-electrospray ionization source (Thermo Scientific, San Jose California). […]

HeLa cell extract preys = test: PBM-AP-MS, PBM peptide baits
Description: as §1, §2, §3, §4

PDZ-proteins = test: Estimated PPI affinity, additive association constants of all PDZ sites;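 note: calculated estimate, not directly measured: domain-motif affinities from holdup assays, association constants summed over all PDZ sites, one motif bound at a time, weak interactions ignored, giving a lower limit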
Description: We used the previously generated domain-motif interactome, consisting of the composite affinities (i.e., taken from the most reliable holdup method; see above) to estimate affinities of PPIs. We assumed that a multidomain PDZ-protein can only interact with a single PBM at the same time (Eq. (4)):4 PDZ+PBM⇌(PDZ−PBM)site1,or(PDZ−PBM)site2,or(PDZ−PBM)siten
Using this approximation, as proposed by others before[45], the association constant of a multi-site interaction is the sum of the association constants of all sites (Eq. (5)):5 Ka,additive=[PDZ−PBM]site1+[PDZ−PBM]site2+…+[PDZ−PBM]siten/[PDZ]×[PBM]=∑Ka,site
The contribution of unmeasurable weak interactions was also neglected in the calculations.

Substance: HPV18E6
- Enrichment values compared to biotin controls (HaCat cell extract preys; prey AHNAK2, PBM peptide bait): 0.8
- Enrichment values compared to biotin controls (HaCat cell extract preys; prey AHNAK, PBM peptide bait): 1.4
- Enrichment values compared to biotin controls (HaCat cell extract preys; prey DLG1, PBM peptide bait): 2.3
- Enrichment values compared to biotin controls (HaCat cell extract preys; prey GORASP2, PBM peptide bait): 9.0
- Enrichment values compared to biotin controls (HaCat cell extract preys; prey InaDl, PBM peptide bait): 8.0
- Enrichment values compared to biotin controls (HaCat cell extract preys; prey LAP2, PBM peptide bait): 0.9
- Enrichment values compared to biotin controls (HaCat cell extract preys; prey LIN7C, PBM peptide bait): 215.4
- Enrichment values compared to biotin controls (HaCat cell extract preys; prey MAGI3, PBM peptide bait): 7.4
- Enrichment values compared to biotin controls (HaCat cell extract preys; prey MPP5, PBM peptide bait): 11.3
- Enrichment values compared to biotin controls (HaCat cell extract preys; prey MPP6, PBM peptide bait): 5.0
- Enrichment values compared to biotin controls (HaCat cell extract preys; prey MPP7, PBM peptide bait): 48.3
- Enrichment values compared to biotin controls (HaCat cell extract preys; prey NHERF2, PBM peptide bait): 1.8
- Enrichment values compared to biotin controls (HaCat cell extract preys; prey NHERF, PBM peptide bait): 2.5
- Enrichment values compared to biotin controls (HaCat cell extract preys; prey PDLIM1, PBM peptide bait): 3.2
- Enrichment values compared to biotin controls (HaCat cell extract preys; prey PDLIM2, PBM peptide bait): 0.8
- Enrichment values compared to biotin controls (HaCat cell extract preys; prey PDLIM4, PBM peptide bait): 1.0
- Enrichment values compared to biotin controls (HaCat cell extract preys; prey PDLIM5, PBM peptide bait): 0.7
- Enrichment values compared to biotin controls (HaCat cell extract preys; prey PDLIM7, PBM peptide bait): 0.5
- Enrichment values compared to biotin controls (HaCat cell extract preys; prey PTPN3, PBM peptide bait): 1.7
- Enrichment values compared to biotin controls (HaCat cell extract preys; prey SCRIB, PBM peptide bait): 0.6
- Enrichment values compared to biotin controls (HaCat cell extract preys; prey SNTB2, PBM peptide bait): 15.4
- Enrichment values compared to biotin controls (HaCat cell extract preys; prey SNX27, PBM peptide bait): 0.641
- Enrichment values compared to biotin controls (HaCat cell extract preys; prey SYNJ2BP, PBM peptide bait): 58.4
- Enrichment values compared to biotin controls (HaCat cell extract preys; prey TJP1, PBM peptide bait): 8.8
- Enrichment values compared to biotin controls (HaCat cell extract preys; prey TJP2, PBM peptide bait): 1.8
- Enrichment values compared to biotin controls (HaCat cell extract preys; prey TX1B3, PBM peptide bait): 1.6
- Enrichment values compared to biotin controls (HeLa cell extract preys; prey AHNAK, PBM peptide bait): 0.9
- Enrichment values compared to biotin controls (HeLa cell extract preys; prey ARHGAP21, PBM peptide bait): 1.1
- Enrichment values compared to biotin controls (HeLa cell extract preys; prey ARHGEF12, PBM peptide bait): 1.0
- Enrichment values compared to biotin controls (HeLa cell extract preys; prey CASK, PBM peptide bait): 5.3
- Enrichment values compared to biotin controls (HeLa cell extract preys; prey DLG1, PBM peptide bait): 6.5
- Enrichment values compared to biotin controls (HeLa cell extract preys; prey DLG3, PBM peptide bait): 5.8
- Enrichment values compared to biotin controls (HeLa cell extract preys; prey DLG5, PBM peptide bait): 1.4
- Enrichment values compared to biotin controls (HeLa cell extract preys; prey DVL2, PBM peptide bait): 1.0
- Enrichment values compared to biotin controls (HeLa cell extract preys; prey GOPC, PBM peptide bait): 2.8
- Enrichment values compared to biotin controls (HeLa cell extract preys; prey HTRA1, PBM peptide bait): 2.4
- Enrichment values compared to biotin controls (HeLa cell extract preys; prey InaDl, PBM peptide bait): 3.6
- Enrichment values compared to biotin controls (HeLa cell extract preys; prey LAP2, PBM peptide bait): 1.8
- Enrichment values compared to biotin controls (HeLa cell extract preys; prey LIN7C, PBM peptide bait): 285.6
- Enrichment values compared to biotin controls (HeLa cell extract preys; prey LMO7, PBM peptide bait): 1.9
- Enrichment values compared to biotin controls (HeLa cell extract preys; prey MPDZ, PBM peptide bait): 3.2
- Enrichment values compared to biotin controls (HeLa cell extract preys; prey MPP5, PBM peptide bait): 60.3
- Enrichment values compared to biotin controls (HeLa cell extract preys; prey MPP6, PBM peptide bait): 3.7
- Enrichment values compared to biotin controls (HeLa cell extract preys; prey MPP7, PBM peptide bait): 14.5
- Enrichment values compared to biotin controls (HeLa cell extract preys; prey NHERF2, PBM peptide bait): 0.843
- Enrichment values compared to biotin controls (HeLa cell extract preys; prey NHERF3, PBM peptide bait): 0.8
- Enrichment values compared to biotin controls (HeLa cell extract preys; prey PDLIM5, PBM peptide bait): 0.9
- Enrichment values compared to biotin controls (HeLa cell extract preys; prey PDLIM7, PBM peptide bait): 0.8
- Enrichment values compared to biotin controls (HeLa cell extract preys; prey PSMD9, PBM peptide bait): 0.8
- Enrichment values compared to biotin controls (HeLa cell extract preys; prey SCRIB, PBM peptide bait): 215.8
- Enrichment values compared to biotin controls (HeLa cell extract preys; prey SIPA1L1, PBM peptide bait): 0.9
- Enrichment values compared to biotin controls (HeLa cell extract preys; prey SNTA1, PBM peptide bait): 1.2
- Enrichment values compared to biotin controls (HeLa cell extract preys; prey SNTB1, PBM peptide bait): 18.1
- Enrichment values compared to biotin controls (HeLa cell extract preys; prey SNTB2, PBM peptide bait): 76.9
- Enrichment values compared to biotin controls (HeLa cell extract preys; prey SNX27, PBM peptide bait): 12.8
- Enrichment values compared to biotin controls (HeLa cell extract preys; prey SYNJ2BP, PBM peptide bait): 49.1
- Enrichment values compared to biotin controls (HeLa cell extract preys; prey TJP1, PBM peptide bait): 1.7
- Enrichment values compared to biotin controls (HeLa cell extract preys; prey TX1B3, PBM peptide bait): 30.0
- final additive pKd (PDZ-proteins; PDZ-protein AHNAK): 3.5
- final additive pKd (PDZ-proteins; PDZ-protein CASK): 3.5
- final additive pKd (PDZ-proteins; PDZ-protein DLG1): 5.948
- final additive pKd (PDZ-proteins; PDZ-protein InaDl): 3.7336
- final additive pKd (PDZ-proteins; PDZ-protein LAP2): 3.615
- final additive pKd (PDZ-proteins; PDZ-protein LIN7C): 4.171
- final additive pKd (PDZ-proteins; PDZ-protein LNX2): 3.17
- final additive pKd (PDZ-proteins; PDZ-protein MAGI3): 5.558
- final additive pKd (PDZ-proteins; PDZ-protein MPP5): 3.5
- final additive pKd (PDZ-proteins; PDZ-protein MPP6): 3.5
- final additive pKd (PDZ-proteins; PDZ-protein MPP7): 3.5
- final additive pKd (PDZ-proteins; PDZ-protein NHERF2): 3.5
- final additive pKd (PDZ-proteins; PDZ-protein PDLIM2): 3.5
- final additive pKd (PDZ-proteins; PDZ-protein PDLIM5): 3.5
- final additive pKd (PDZ-proteins; PDZ-protein PDLIM7): 3.5
- final additive pKd (PDZ-proteins; PDZ-protein PSMD9): 3.5
- final additive pKd (PDZ-proteins; PDZ-protein SCRIB): 5.064
- final additive pKd (PDZ-proteins; PDZ-protein SNTB1): 5.229
- final additive pKd (PDZ-proteins; PDZ-protein SNTB2): 4.58
- final additive pKd (PDZ-proteins; PDZ-protein SNX27): 4.554
- final additive pKd (PDZ-proteins; PDZ-protein SYNJ2BP): 5.349
- final additive pKd (PDZ-proteins; PDZ-protein TX1B3): 4.665

— PMC9482650, “Quantitative fragmentomics allow affinity mapping of interactomes” (Nature Communications, 2022)
